{"source": "patent US10100096B2", "about": "“Tissue protective peptides and uses thereof” (Araim Pharmaceuticals, Inc., priority 2005, dated 2018)", "key": {"[1]": {"tested_on": "right sciatic nerve of rats", "assay": "Sciatic nerve assay (in vivo sciatic nerve injury model)", "design": "species or system rat", "settings": "Example 2, Table 1, FIG. 1, FIG. 2, comparison with carbamylated EPO", "experimental": "The tissue protective peptides were tested for any tissue protective activity using a Sciatic Nerve Assay. Sprague-Dawley rats (250-300 grams) (six per group, including control) were anesthetized using isoflurane (Baxter NPC 10019-773-60) and a Table Top Laboratory Anesthesia System (flowmeter set to 2-3 liters/minute @55 psi) for at least 3 minutes. The rat was then placed on a homeothermic blanket to ensure that the core temperature of the rat was maintained at 35-37° C. during the operation. Core temperature was monitored via a rectal probe. The right sciatic nerve of the anesthetized rat was exposed at mid thigh through a quadriceps muscle dissection; a 2 cm incision with a 15 blade scalpel was made through the skin parallel and over the quadriceps muscle and the quadriceps muscle was cut to expose the sciatic nerve using a pair of dissecting scissors. The sciatic nerve was then freed from the surrounding membranes. A 2-0 braided silk thread (Ethicon, 685-G) was passed under the nerve and the ends of the suture passed through a guide which was maintained perpendicular to the nerve. The end of the suture was then tied to a non-elastic cord which was then draped around the pulley system (a NYL pulley bearing MTD ¼″ B (PO Number 04174-01) with stabilizer) and a 100 gram weight attached to the non-elastic cord was slowly released. The weight was allowed to hang for 1 minute before the silk suture was cut to release the weight.\nA 289 pmol/kg dose of carbamylated erythropoietin, a 289 pmol/kg dose of one peptide from the series A-J (see Table 1), or PBS was then injected into the caudal vein using a ½ cc insulin syringe.\nThe muscle and surgical incision were then closed and 5 ml of Lactated Ringers solution was injected subcutaneously into the rat. The core temperature of the rat was maintained at 35-37° C. using a heat blanket during recovery.\nOver the next four days the rear toe splaying of the rats was determined by placing the rat in an acrylic tube with a diameter of 30 cm on the scanning surface of a digital scanner. […] Three acceptable scans of each rat were taken. From the scans, the Toe Spread (the distance between the ball of the first toe and the ball of the fifth toe) and the Intermediate Toe Spread (the distance between the ball of the second toe and the ball of the fourth toe) were measured. The static sciatic index was then computed in accordance with S. Erbayraktar et al., 2003, Proc Natl Acad Sci USA 100, 6741-6746 (hereby incorporated by reference in its entirety) and statistical analysis performed."}, "[2]": {"assay": "In vivo assessment of erythropoietic activity and neutralizing antibodies", "design": "species or system rat", "settings": "rats, 0.8 μg/kg s.c. 3 days/week over 130 days, FIG. 4; for increase in hemoglobin levels (hematocrit): EPO at equimolar dosage", "experimental": "To evaluate the erythropoietic activity of tissue protective peptide F (SEQ ID NO:33) or peptide G (SEQ ID NO:40, as discussed supra a peptide constructed of the presenting residues of Helix B), the peptides were administered 0.8 μg/kg subcutaneously three time per week to male Sprague Dawley rats. The dosage schedule corresponded to the equivalent dose (on a molar basis) of EPO previously determined to be elicit maximum erythropoiesis. Hemoglobin concentration was determined periodically by use of an automated analyzer (Keska Corporation)."}, "mouse P19 cells": {"tested_on": "mouse P19 cells", "assay": "P19 cell apoptosis upon withdrawal of serum", "format": "cell-based", "settings": "times more potent than EPO, on a weight basis; FIG. 6", "experimental": "Alternatively, tissue protection afforded by peptides can be determined using an assay employing mouse P19 cells, which are neuronal-like and die via apoptosis upon withdrawal of serum. Tissue protection of peptide D (SEQ ID NO:30) was compared to that of EPO using P19 clone P19S1801A1 as previously published (Siren et al., 2001, PNAS 98:4044, hereby incorporated by reference in its entirety). Cells were maintained undifferentiated in DMEM supplemented with 2 mM Lglutamine; 100 units/ml penicillin G; […] streptomycin sulfate (GIBCO); 10% (vol/vol) FBS (HyClone), containing 1.2 g/liter NaHCO3 and 10 mM Hepes buffer, hereafter referred to as complete medium. Serum-free medium contained the same components as above with the deletion of serum and the addition of 5 mg/ml of insulin; […] of transferrin; 20 nM progesterone; […] putrescine; 30 nM Na2SeO3 (from Sigma). For the experiments, 50% confluent cells were pretreated overnight with EPO or vehicle, dissociated with trypsin, washed in serum-free medium, and plated in 25-cm^2 tissue culture flasks at a final density of 10^4 cells/cm^2 in serum-free medium alone or with added EPO. Cell viability and was determined by trypan blue exclusion and a hemacytometer."}, "[3]": {"tested_on": "experimental autoimmune encephalomyelitis in mice", "assay": "Murine EAE model", "format": "in vivo, mouse", "settings": "C57BL/6 mice; 4.4 μg/kg daily starting day 4 after immunization; p<0.01; FIG. 13", "experimental": "Experimental autoimmune encephalomyelitis ([…]) was induced in C57BL/6 female mice (6-8 weeks of age) according to Savino et al., 2006, J Neuroimmunol 172:27-37, hereby incorporated by reference in its entirety. EAE was induced by subcutaneous immunization in the flanks with a total of 200 μg of MOG35-55 (Multiple Peptide Systems, San Diego, Calif., USA) in incomplete Freund's adjuvant (Sigma. St. Louis, Mo., USA) supplemented with 8 mg/ml of Mycobacterium tuberculosis (strain H37RA; Difco, Detroit, Mich., USA). Animals were housed in specific pathogen-free conditions, allowing access to food and water ad libitum. Mice received 500 ng of pertussin toxin (Sigma) i.v. at the time of immunization and 48 h later. Weight and clinical score were recorded daily (0=healthy, 1=flaccid tail, 2=ataxia, and/or hind-limbs paresis, or slow righting reflex, […] 3=paralysis of hind limb and/or paresis of forelimbs, 4=paraparesis of fore limb, 5=moribund or death). Food pellets and the drinking water were placed on Petri plates on the floor of the cage to enable sick mice to eat and drink. Peptide E (SEQ ID NO:31) was administered daily subcutaneously at a dose of 4.4 micrograms/kg-bw, starting on day 4 after immunization."}}, "note": "Entries after “also recorded” stand apart in the source; their conditions may differ. No end group written: not given here.", "data": [{"sequence": "NITTGCAEHCSLNE (Peptide B - consists of EPO amino acids 24-37) [EPO fragment, amino acids 24-37]", "values": [{"measurement": "tissue protective activity in the sciatic nerve injury model (in words)", "setting": "[1]", "result": "is not tissue protective"}, {"measurement": "increase in hemoglobin levels (hematocrit)", "setting": "[2]", "result": "Neither Peptide B nor Peptide C showed any increase in hematocrit"}]}, {"sequence": "APPRLICDSRVLERYLLEAKEAE (Peptide A - consists of the N-terminal portion of Helix A corresponding to EPO amino acids 1-23) [EPO fragment, amino acids 1-23]", "values": [{"measurement": "tissue protective activity in the sciatic nerve injury model (in words)", "setting": "[1]", "result": "is tissue protective"}]}, {"sequence": "NITVPDTKVNFYAWKRMEVG (Peptide C - loop AB and N-terminal portion of helix B corresponding to EPO amino acids 38-57) [EPO fragment, amino acids 38-57]", "values": [{"measurement": "potency relative to EPO in preventing apoptosis of p19 cells", "setting": "mouse P19 cells", "result": "at least 10"}, {"measurement": "tissue protective activity in the sciatic nerve injury model (in words)", "setting": "[1]", "result": "exhibit tissue protective properties"}, {"measurement": "increase in hemoglobin levels (hematocrit)", "setting": "[2]", "result": "Neither Peptide B nor Peptide C showed any increase in hematocrit"}]}, {"sequence": "QEQLERALNSSLRRYINMLTRTR (Peptide J - A chimera peptide of Peptide G linked to pancreatic polypeptide helix)", "values": [{"measurement": "tissue protective activity in the sciatic nerve injury model (in words)", "setting": "[1]", "result": "potent tissue protective activity"}]}, {"sequence": "QEQLERALNSS [Peptide G, QEQLERALNSS]", "values": [{"measurement": "neutralizing antibody response against EPO", "setting": "[2]", "result": "no neutralizing antibody response was observed; also recorded: neither peptide elicits an antibody response"}]}, {"sequence": "RYLLEAKEAENITTGC [Peptide F, RYLLEAKEAENITTGC]", "values": [{"measurement": "neutralizing antibody response against EPO", "setting": "[2]", "result": "no neutralizing antibody response was observed; also recorded: neither peptide elicits an antibody response"}]}, {"sequence": "CSLNENIQEQLERALNSS (Peptide I - A chimera peptide linking the helix B exterior-presenting amino acids to the beta pleated sheet found within the AB loop of the EPO) [chimera: Peptide G + β-pleated sheet (33-39)]", "values": [{"measurement": "tissue protective activity in the sciatic nerve injury model (in words)", "setting": "[1]", "result": "is tissue protective"}]}, {"sequence": "GCAEHCSLNENITVPDTKVN (Peptide E - a portion of the A-B loop consisting of a small cysteine loop and a Beta-pleated sheet corresponding to EPO amino acids 28-47) [EPO fragment, amino acids 28-47]", "values": [{"measurement": "clinical score / neurological function in EAE", "setting": "[3]", "result": "significantly reduced both the time course and severity; also recorded: significantly improved neurological function"}, {"measurement": "tissue protective activity in the sciatic nerve injury model (in words)", "setting": "[1]", "result": "is tissue protective"}, {"measurement": "tissue protective activity in the sciatic nerve injury model (in words)", "setting": "[1]; listed as SEQ ID NO:31", "result": "exhibit tissue protective properties"}]}]}
